{"source": "patent US20250049799A1", "about": "“Targeted Therapy of Pyrrolo[2,3-D]Pyrimidine Antifolates in a Syngeneic Mouse Model of High Grade Serous Ovarian Cancer” (Duquesne University of The Holy Spirit, priority 2021, published 2025)", "key": {"FRβ": {"molecular_target": "FRβ (Homo sapiens, UniProt P14207)", "sequence (P14207 17-230)": "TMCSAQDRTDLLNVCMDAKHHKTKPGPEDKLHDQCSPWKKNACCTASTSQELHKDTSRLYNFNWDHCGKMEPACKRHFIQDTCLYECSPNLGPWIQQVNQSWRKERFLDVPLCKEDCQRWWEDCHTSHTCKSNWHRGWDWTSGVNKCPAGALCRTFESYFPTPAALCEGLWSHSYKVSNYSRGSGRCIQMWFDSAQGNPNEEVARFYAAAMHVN", "conditions": "comparison of Table 3 values with PMX"}, "IGROV1 human EOC cells": {"tested_on": "IGROV1 human EOC cells", "test": "Cell proliferation assay, IGROV1 cells", "type": "cell-based", "method": "(§1) Results with BR-5 and BR-Luc cells were compared to those for IGROV1 human EOC cells (Table 1) in the absence and presence of excess folic acid (200 nM), which selectively blocks FR-mediated drug uptake without effects on RFC or PCFT^6. […] Further, inhibitions of the murine EOCs by all compounds approximated those for IGROV1 human EOC cells.\n(§2) Cell proliferation assays were performed as described^6, 21. Cells were plated in 96-well dishes at densities ranging from 2500-5000 cells/well in 200 μL media and treated with a range of inhibitors spanning 0-1000 nM. Experiments used BR-5 and BR-Luc cells and folate-free RPMI 1640 media with 10% dialyzed FBS and 100 units/mL penicillin/100 μg/mL streptomycin, supplemented with 25 nM leucovorin and 2 mM L-glutamine. FR-mediated drug uptake was assessed in parallel incubations including 200 nM folic acid. Cells were treated over a 96 h period at 37° C. with 5% CO2 and relative cell numbers were quantified using the CellTiter-blue cell viability assay (Promega, Madison, WI) and a fluorescence plate reader^21. Raw data were exported to Excel for analysis and the results plotted using Graphpad Prism 6.0."}, "[1]": {"tested_on": "BR-Luc mouse HGSOC tumor cells", "test": "Cell proliferation assay (CellTiter-blue, 96 h), BR-Luc cells", "type": "cell-based", "method": "as §1, §2"}, "[2]": {"tested_on": "BR-5 mouse HGSOC tumor cells", "test": "Cell proliferation assay (CellTiter-blue, 96 h), BR-5 cells", "type": "cell-based", "method": "as §1, §2"}}, "note": "Read-outs that look alike come from different tables or passages of the source.", "data": [{"smiles": "Nc1nc2[nH]c(CCCCc3csc(C(=O)N[C@@H](CCC(=O)O)C(=O)O)c3)cc2c(=O)[nH]1", "note": "[Compound 5]", "values": [{"measurement": "Transport by folate receptor beta compared with pemetrexed (PMX)", "setting": "FRβ", "value": "at least ten times better transported"}]}, {"smiles": "Nc1nc2[nH]c(CCCCc3cnc(C(=O)N[C@@H](CCC(=O)O)C(=O)O)c(F)c3)cc2c(=O)[nH]1", "note": "[Compound 10]", "values": [{"measurement": "Transport by folate receptor beta compared with pemetrexed (PMX)", "setting": "FRβ", "value": "at least ten times better transported"}]}, {"smiles": "Nc1nc2[nH]c(CCCCc3csc(C(=O)N[C@@H](CCC(=O)O)C(=O)O)c3F)cc2c(=O)[nH]1", "note": "[AGF278]", "values": [{"measurement": "Transport by folate receptor beta compared with pemetrexed (PMX)", "setting": "FRβ", "value": "at least ten times better transported"}, {"measurement": "IC50", "setting": "IGROV1 human EOC cells; Homo sapiens, IGROV-1, no folic acid, mean ± SE, read-out: IC50 anti-proliferative activity IGROV1, No addition", "value": "1.9 ± 0.15", "unit": "nM"}, {"measurement": "IC50", "setting": "IGROV1 human EOC cells; Homo sapiens, IGROV-1, read-out: IC50 anti-proliferative activity IGROV1, Folic Acid (200 nM), with 200 nM folic acid, mean ± SE", "value": "426 ± 152", "unit": "nM"}, {"measurement": "IC50", "setting": "[1]; Mus musculus, no folic acid, folate-free RPMI1640, 25 nM leucovorin, mean ± SE, read-out: IC50 anti-proliferative activity BR-Luc, No addition", "value": "6.06 ± 3.12", "unit": "nM"}, {"measurement": "IC50", "setting": "[1]; Mus musculus, read-out: IC50 anti-proliferative activity BR-Luc, Folic Acid (200 nM), with 200 nM folic acid, mean ± SE", "value": "588 ± 162", "unit": "nM"}, {"measurement": "IC50", "setting": "[2]; Mus musculus, no folic acid, mean ± SE, read-out: IC50 anti-proliferative activity BR-5, No addition", "value": "6.55 ± 3.24", "unit": "nM"}, {"measurement": "IC50", "setting": "[2]; Mus musculus, read-out: IC50 anti-proliferative activity BR-5, Folic Acid (200 nM), with 200 nM folic acid, mean ± SE", "value": "547 ± 188", "unit": "nM"}]}, {"smiles": "Nc1nc2[nH]c(CCCCc3ccc(C(=O)N[C@@H](CCC(=O)O)C(=O)O)c(F)c3)cc2c(=O)[nH]1", "note": "[Compound 8]", "values": [{"measurement": "Transport by folate receptor beta compared with pemetrexed (PMX)", "setting": "FRβ", "value": "at least ten times better transported"}]}, {"smiles": "N.N.[Cl][Pt][Cl]", "note": "[Cisplatin, reference compound]", "values": [{"measurement": "IC50", "setting": "IGROV1 human EOC cells; no folic acid, mean ± SE, read-out: IC50 anti-proliferative activity IGROV1, No addition", "value": "857 ± 62.3", "unit": "nM"}, {"measurement": "IC50", "setting": "[1]; no folic acid, folate-free RPMI1640, 25 nM leucovorin, mean ± SE, read-out: IC50 anti-proliferative activity BR-Luc, No addition", "value": "290 ± 170", "unit": "nM"}, {"measurement": "IC50", "setting": "[2]; no folic acid, mean ± SE, read-out: IC50 anti-proliferative activity BR-5, No addition", "value": "160 ± 110", "unit": "nM"}]}, {"smiles": "Nc1nc2[nH]c(CCCCc3ccc(C(=O)N[C@@H](CCC(=O)O)C(=O)O)nc3)cc2c(=O)[nH]1", "note": "[Compound 4]", "values": [{"measurement": "Transport by folate receptor beta compared with pemetrexed (PMX)", "setting": "FRβ", "value": "at least ten times better transported"}]}, {"smiles": "Nc1nc2[nH]c(CCCc3ccc(C(=O)N[C@@H](CCC(=O)O)C(=O)O)s3)cc2c(=O)[nH]1", "note": "[Compound 1]", "values": [{"measurement": "Transport by folate receptor beta compared with pemetrexed (PMX)", "setting": "FRβ", "value": "at least ten times better transported"}]}, {"smiles": "Nc1nc2[nH]c(CCCCc3ccc(C(=O)N[C@@H](CCC(=O)O)C(=O)O)cc3)cc2c(=O)[nH]1", "note": "[Compound 2]", "values": [{"measurement": "Transport by folate receptor beta compared with pemetrexed (PMX)", "setting": "FRβ", "value": "at least ten times better transported"}]}]}
